Measured values taken from patent US7691827B2, “Amide prodrug of gemcitabine, compositions and use thereof” (Eli Lilly and Company, priority 2004, dated 2010).

What was measured:
[1] = result of first pass metabolism; cited from earlier work
[2] = cited from earlier work
[3] = Liver S9 Hydrolysis Assay (dog); format: in vitro ADME, beagle dog; details: dog liver S9, 10 uM, pH 8.0
Experimental: (§1) Liver S9 Hydrolysis Assay
(§2) Hydrolysis of a compound of formula I by liver enzymes is determined by liver hydrolysis assay. Liver homogenates are prepared from CD-1 mouse, beagle dog, cynomolgus monkey, and human livers. Liver tissues are cut into small pieces using scissors, then, homogenized in 50 mM acetate buffer using Polytron (PT-10-85) for 1 min. Post-mitochondrial (S9) fractions are prepared from each by ultracentrifugation at 9,000×g at 4° C. for 10 min. Mouse, dog and monkey liver S9 fractions are prepared from freshly collected tissues, while human liver S9 are prepared from previously frozen tissue. After centrifugation, the supernatant is collected and protein concentrations are determined by standard spectrophotometric techniques. The prepared S9 fractions are store at −70° C. before using.
(§3) The hydrolytic rates of a compound of formula I in liver S9 is determined by incubating compound (10 uM) with S9 (2 mg/mL of total protein) in phosphate buffered saline at pH 8.0 for up to 6 hours. Concentrations of gemcitabine released via hydrolysis are determined by LC/MS analysis after the reaction is quenched with acetonitrile. Hydrolysis rates are calculated at 30 minutes in screening experiments and from the slope of the linear portion of the hydrolysis vs. time curves in characterization studies of a compound of formula I.

[4] = Liver S9 Hydrolysis Assay (monkey); format: in vitro ADME, cynomolgus monkey
Experimental: as §1, §2, §3

[5] = Small Intestine Homogenate Assay (dog); format: in vitro ADME, beagle dogs; details: dog SIH, 100 uM, pH 7.5
Experimental: (§4) Small Intestine Homogenate Assay
(§5) To determine the stability of a compound of formula I to enzymatic hydrolysis in the intestine, crude homogenates of small intestinal epithelial cells are prepared from sections of the upper small intestine from CD-1 mice, beagle dogs, cynomolgus monkeys, and humans. Mouse and dog homogenates are prepared from freshly collected tissue, while monkey and human homogenates are prepared from previously frozen tissues. Cells are gently scraped from intestinal segments, pooled, and homogenized in 50 mM acetate buffer using Polytron (PT-10-85). Protein concentrations are determined by standard spectrophotometric techniques. The prepared homogenates are store at −70° C. before using.
(§6) The hydrolytic rates of a compound of formula I in small intestinal homogenates (SIH) is determined by incubating a compound of formula I (100 uM) with SIH (2.5-5 mg/mL of total protein) in acetate at pH 7.5 for up to 6 hours. Concentrations of gemcitabine released via hydrolysis is determined by LC/MS analysis after the reaction is quenched with acetonitrile. Hydrolysis rates are calculated at 30 minutes in screening experiments and from the slope of the linear portion of the hydrolysis vs. time curves in characterization studies of a compound of formula I.

[6] = Small Intestine Homogenate Assay (monkey); format: in vitro ADME, cynomolgus monkeys; details: monkey SIH
Experimental: as §4, §5, §6

[7] = 7-Day Dog Study (oral toxicity); format: in vivo; details: oral capsule once daily for 7 days, beagle dogs
Experimental: To evaluate the toxicity profile of a compound of formula I when administered to Beagle dogs for 7 days, and to determine the plasma concentrations of a compound of formula I and metabolites gemcitabine HCl and deoxydifluorouridine after 1 or 7 doses, a 7-day dog study is conducted.
Male and female beagle dogs 6-48 months of age are dosed orally via capsule with a compound of formula I. A range of doses is selected in an effort to determine a maximum tolerated dose and dose limiting toxicity. A dose volume of 1 mL/kg is used and doses aree administered once daily.
Clinical signs, body weight, food consumption, body temperature, hematology (including coagulation), clinical chemistry, urinalysis, plasma concentrations of the compound of Example I and its metabolites gemcitabine HCl and deoxydifluorouridine, and pathology (including gross pathology, organ weights, and histopathology) were evaluated.

[8] = Small Intestine Homogenate Assay (human); format: in vitro ADME, humans; details: human SIH
Experimental: as §4, §5, §6

[9] = Liver S9 Hydrolysis Assay (mouse); format: in vitro ADME, CD-1 mouse; details: mouse liver S9, 10 uM, pH 8.0
Experimental: as §1, §2, §3

[10] = tested on: HCT-116 colon tumor cells; assay: In Vivo Assay, HCT-116 colon tumor xenograft; details: oral gavage, HCT-116 xenograft in female nude mice
Experimental: HCT-116 colon tumor cells are grown in vitro under standard tissue culture conditions, harvested, washed, and 5×10^6 cells (1:1 suspension in Matrigel, Collaborative Biomedical Products, Inc) are injected subcutaneously in the rear flank of female nude mice (Charles River, CD1 nu/nu, 24-27 g, irradiated with 450 Rads within 24 h of implantation). Tumors are allowed to grow to ˜100 mm^3 before initiation of therapy. Vehicle control, a compound of formula I or gemcitabine-HCl at various dose levels are administered to the mice by oral gavage (10 ml/kg volume) at the times indicated in the individual experiments. Compounds are administered either daily for fourteen days, every other day for a total of seven doses, or every third day for a total of four doses. […] Tumor size is determined by caliper measurements and tumor volume (mm^3) is estimated from the formula l×w^2×0.536, where l is the larger and w is the smaller of perpendicular diameters. All data (tumor measurements and animal weights) are captured twice-weekly beginning with the start of therapy and analyzed using a computer based tumor measurement system.

[11] = Liver S9 Hydrolysis Assay (human); format: in vitro ADME
Experimental: as §1, §2, §3

[12] = Small Intestine Homogenate Assay (mouse); format: in vitro ADME, CD-1 mice; details: mouse SIH, 100 uM, pH 7.5
Experimental: as §4, §5, §6

[13] = 4-Day Mouse Screen (oral toxicity); format: in vivo; details: oral gavage once daily for 4 days, molar equivalent of 8-mg/kg gemcitabine, female CD-1 mice
Experimental: To evaluate the toxicity produced by orally administered compound of formula I when administered daily to female […] mice for 4 days, the gastrointestinal toxicity profiles of a compound of formula I is compared with the historical results for gastrointestinal toxicity when gemcitabine is administered orally at 8 mg/kg in a 4-day mouse study.
Female CD-1 mice 5-8 weeks of age are dosed with a compound of formula I by oral gavage. A dose level is chosen to approximate a molar equivalent of 8-mg/kg gemcitabine. A dose volume of 10 mL/kg is used and doses are administered once daily on 4 consecutive days. Necropsy is performed approximately 5-8 hours following the 4th dose.
Clinical signs, clinical chemistry, gross pathology, and limited histopathology (ileum, jejunum, and liver) are evaluated.

[14] = pH Chemical Stability Assay; format: physicochemical; details: pH range 1 to 8, after four hours, 40° C., 100 mcg/mL
Experimental: pH Chemical Stability Assay
The pH chemical stability is assessed using a semi-automated HPLC technique. Samples of compound of formula I are prepared at 100 mcg/mL in five buffers representing the pH range throughout the gastrointestinal tract (pH1-pH8). Samples are loaded onto an HPLC autosampler incubated at 40° C. Samples are repeatedly injected on the HPLC at hourly intervals for up to 24 hours with an HPLC column that separates a compound of formula I from gemcitabine. The peak area of the compound of formula I is monitored by UV detection over time and are compared to initial peak areas to determine stability.

[15] = 14 Day Mouse Study (oral toxicity and exposure); format: in vivo; details: 14 days oral gavage, CD-1 mice
Experimental: A 14-Day Mouse Study is conducted to evaluate whether a compound of formula I produces adverse effects in mice following 14 days of oral gavage dosing and to determine the plasma concentrations of a compound of formula I and its metabolites gemcitabine HCl and deoxydifluorouridine after 1 or 14 doses.
Male and female CD-1 mice 9-12 weeks of age are dosed with a compound of formula I […] by oral gavage. A range of doses is selected in an effort to determine a maximum tolerated dose and dose limiting toxicity. A dose volume of 10 mL/kg is used and doses are administered once daily.
Clinical signs, body weight, food consumption, hematology, clinical chemistry, plasma concentrations of a compound of formula I and metabolites gemcitabine HCl and deoxydifluorouridine, and pathology (including gross pathology, organ weights, and histopathology) are evaluated.

[16] = Monkey Pharmacokinetics Assay; format: in vivo; details: administered intravenously to cynomolgus monkeys
Experimental: Monkey Pharmacokinetics Assay
The pharmacokinetic profiles of gemcitabine and a compound of formula I, are assessed in cynomolgus monkeys following oral and intravenous administration in a crossover design. Compounds are administered at doses selected to contain approximately 10 mg/kg of gemcitabine. Blood samples are collected into EDTA-treated tubes containing tetrahydrouridine (0.5 mM final concentration in blood) at designated intervals for up to 48 hours. Animals are pretreated with ranitidine (intravenous, 5 mg/kg) in the oral dosing periods. Plasma is isolated by centrifugation and frozen prior to analysis. Plasma concentrations of gemcitabine and a compound of formula I are determined by LC/MS/MS analysis. Pharmacokinetic parameters are determined using WinNonlin software (Pharsight Corp., Mountain View, Calif.).

Mouse Pharmacokinetics = format: in vivo, CD-1 mice
Experimental: The pharmacokinetic profiles of gemcitabine and a compound of formula I, are assessed in male CD-1 mice following oral administration at doses selected to contain approximately 10 mg/kg of gemcitabine. Designated animals (n=3/time point/compound) are sacrificed at 0.08, 0.25, 0.5, 1, 2, and 6 hours after dosing, and systemic blood samples are collected into EDTA-treated tubes containing tetrahydrouridine (0.5 mM final concentration in blood) to inhibit further metabolism of gemcitabine. An additional 3 animals are sacrificed at 0.08 hours for collection of hepatic portal blood. Plasma is isolated by centrifugation and frozen prior to analysis. Plasma concentrations of gemcitabine and prodrugs are determined by LC/MS/MS analysis. Pharmacokinetic parameters are calculated using WinNonlin software (Pharsight Corp., Mountain View, Calif.). Pharmacokinetic parameters of each prodrug are compared to those determined from administration of oral gemcitabine hydrochloride in a similar study design.

Nc1ccn([C@@H]2O[C@H](CO)[C@@H](O)C2(F)F)c(=O)n1 [gemcitabine, 2′,2′-difluoro-2′-deoxycytidine]
oral bioavailability [1]: poor oral bioavailability | death or gastrointestinal toxicity ([2]; comparable exposures via intravenous dosing, previous mouse studies): did not result in death or gastrointestinal toxicity | intestinal lesions ([2]; single oral (gavage) dose of 167, 333, or 500 mg/kg, mice): moderate-to-marked loss of mucosal epithelium (atrophic enteropathy)

CCCC(CCC)C(=O)Nc1ccn([C@@H]2O[C@H](CO)[C@@H](O)C2(F)F)c(=O)n1 [Example 1, 1-(2,2-difluoro-2-deoxy-β-D-ribofuranosyl)-4-(2-propyl-1-oxopentyl)aminopyrimidin-2-one]
hydrolysis in liver S9 [3]: hydrolyzed | hydrolysis in liver S9 ([4]; monkey liver S9, 10 uM, pH 8.0): hydrolyzed | total compound converted to gemcitabine ([4]; monkey liver S9, 6 hour incubation): approximately 3.5% | rate of hydrolysis in small intestine homogenate [5]: slow rate of hydrolysis | rate of hydrolysis in small intestine homogenate ([6]; 100 uM, pH 7.5): slow rate of hydrolysis | total compound converted to gemcitabine ([6]; 6 hour incubation): less than 3% | hematotoxicity and the other toxicities, including GI toxicity [7]: consistent with what has been previously described for parenteral gemcitabine | rate of hydrolysis in small intestine homogenate ([8]; 100 uM, pH 7.5): slow rate of hydrolysis | total compound converted to gemcitabine ([8]; 6 hour incubation): less than 3% | hydrolysis in liver S9 [9]: hydrolyzed | antitumor efficacy versus equivalent dose of gemcitabine-HCl [10]: comparable | overall toxicity versus equivalent amount of gemcitabine-HCl [10]: less overall toxicity | hydrolysis in liver S9 ([11]; human liver S9, 10 uM, pH 8.0): hydrolyzed | total compound converted to gemcitabine ([11]; human liver S9, 6 hour incubation): approximately 3.5% | rate of hydrolysis in small intestine homogenate [12]: slow rate of hydrolysis | severity of atrophic intestinal changes or enteropathy versus gemcitabine HCl [13]: significant reduction | compound degraded to gemcitabine [14]: Less than 25% | enteropathy versus gemcitabine HCl on a molar equivalent basis [15]: less enteropathy | systemic exposure to gemcitabine HCl versus gemcitabine HCl on a molar equivalent basis [15]: approximately twice | hydrolysis in vivo to release gemcitabine [16]: extensively hydrolyzed | concentration of intact prodrug in hepatic portal plasma (Mouse Pharmacokinetics; 0.08 hours after oral dosing, CD-1 mice): relatively high concentrations | hydrolysis in vivo to release gemcitabine (Mouse Pharmacokinetics; administered orally to CD-1 mice, approx. 10 mg/kg of gemcitabine): extensively hydrolyzed | plasma exposure to gemcitabine compared to direct oral administration of gemcitabine hydrochloride (Mouse Pharmacokinetics; oral, CD-1 mice): increased
